According to patent US11020422B2, “Cyclodextrin for the treatment of lysosomal storage diseases” (The United States of America, as represented by the …, priority 2012, dated 2021):
Where two headings read alike, the source gives them in different places.

Key:
Wolman fibroblasts [1] = assay: Amplex-Red cholesterol assay in Wolman fibroblasts; assay type: cell-based, human; details: for cholesterol accumulation: cyclodextrins alone, other lysosomal storage disorders (FIG. 1)
Description: (§1) Amplex-Red Cholesterol Assay—Total cholesterol in patient cells was measured by the Amplex-Red Cholesterol Assay Kit (Invitrogen). The unesterified cholesterol was determined using the same kit without the enzyme […]. Esterified cholesterol was determined as the difference between the total and unesterified cholesterol values. The cells were seeded to black, tissue culture-treated 96-well, 384-well or 1536-well plates at 4000, 1000, 300 cells/well in 100, 20 or 5 μl medium by a Multidrop Combi dispenser (Thermo Scientific, Waltham, Mass.) and cultured for 24 hr. The assay plates were added with compound dilution in DMSO solution using a Pintool station (Klaypsys, San Diego, Calif.) and cultured for 3 days. The cells were washed twice manually for 96-well or 384-well plates or using a centrifugation method in which the inverted plates were placed on a stack of paper towel and centrifuged at 800 rpm for 1 min followed by addition of 7 μl/well PBS (added gently with a 45 degree angled liquid dispenser (Klaypsys). The cholesterol assay mixture from the kit was added at 100, 20 or 2.5 μl/well for 96-well, 384-well or 1536-well plates and incubated for 1 hr at 37° C. The resulted fluorescence intensity was measured with excitation of 560 (±10) and emission of 590 (±10) in a fluorescence plate reader (Tecan, Durham, N.C.).

Wolman fibroblasts [2] = assay: β-Hexosaminidase (HEXB) release, lysosomal exocytosis; assay type: cell-based, human; details: for exocytosis: cyclodextrins, wild type and Wolman cells, assay not stated; for lysosomal exocytosis as determined by HEXB secretion: Wolman fibroblasts, FIG. 3
Description: Measurement of β-Hexosaminidase (HEXB) Release—Fibroblasts were cultured in 24-well plates at 30,000 cells/well in 0.4 ml medium for one day at 37° C. After being washed twice with the assay buffer (DMEM with 2 mM D-mannose 6-phosphate sodium salt), the cells with 0.4 ml/well the assay buffer were incubated at 37° with 0.2 ml/well compound in assay buffer. […] The rest of assay buffer in the 24-well plate was discarded followed by addition of 0.6 ml 1% Triton-X100 in dH2O to lyse the cells. After incubation at 37° C. for 30 min. 6 μl/well cell lysate were added to the 96-well plate with 24 μl assay buffer followed by 90 μl/well 2.25 mM HEXB substrate, 4-Methylumbelliferyl N-acetyl-β-D-glucosaminide (Sigma-Aldrich, #M2133), in a 25 mM citric acid buffer at pH 4.5. The 96-well plate was then measured in the Tecan fluorescence plate reader (Ex=365±20 nm and Em=460±20 nm) after 1 hr incubation at 37° C. and addition of 100 μl/well stop solution (1 M glycine and 1 M NaOH at pH 10.5).
FIG. 3. […] We measured lysosomal exocytosis in delta-T-treated Wolman fibroblasts by determining the activity of beta-hexosaminidase (HEXB), a lysosomal enzyme, in the extracellular medium.
In brief, the level of lysosomal exocytosis was determined by measuring the level of the lysosomal enzyme HEXB secreted into the culture medium following treatment with drug.

NPC1 skin fibroblasts = assay: Cholesterol accumulation (Amplex-red, filipin) and enlarged lysosomes (Lysotracker) in NPC1 skin fibroblasts; assay type: cell-based, human; details: for cholesterol accumulation / ranking order of cholesterol reduction effect: NPC cells
Description: as §1

primary NPC fibroblasts = primary NPC fibroblasts / LSD fibroblast; reported; cited from earlier work
[3] = system: fibroblasts derived from patients with lysosomal storage diseases; assay: LysoTracker dye staining of enlarged lysosomes; assay type: cell-based, human; details: for concentration needed for significant effect on reduction of enlarged lysosome size: single compound use, skin fibroblasts of nine lysosomal storage diseases
Description: (§2) On the experimental day, cells were live-stained with 100 μl/well 50 nM LysoTracker-Red DND-99 dye (Invitrogen, #L-7528) in medium at 37° C. for 1 hr followed by plate washing twice with PBS. The plate was then fixed in 100 μl/well 3.2% formaldehyde for 1 hr and washed for two times with PBS. […] After washing twice with PBS, the plates were stored at 4° C. until imaging analysis. DAPI filter set and TRITC filter set in the Incell2000 imaging plate reader were used to visualize Hoechst nuclear staining and LysoTracker staining, respectively.
FIG. 5. […] To test this hypothesis we measured the ability of delta-T to decrease acidic/lysosomal compartment size as determined by LysoTracker staining in fibroblasts derived from patients with six other diseases. Lysosomal storage occurs in these fibroblasts consists of ceroid/lipofuscin in Batten (CLN2), globotriaosylceramide in Fabry, ceramide in Farber, sphingomyelin in NPA, partially degraded heparan sulfate in Sanfilippo type B, and GM2 ganglioside in Tay-Sachs (Table S1).
The effect of various cyclodextrins, δ-tocopherol, and combinations of cyclodextrins and δ-tocopherol on lipid accumulation and lysosome size in wild-type and lysosomal storage disease fibroblasts (Wolman, Tay-Sach, Fabry, Farber, and MPSIIIB fibroblasts) was determined using Lysotracker assay. In brief, cells were treated with various combinations and concentrations of drugs followed by staining with the Lyso tracker dye which is a basophilic fluorescent probe that accumulates in acidic compartments, i.e. lysosomes, within the cell.

NPC1-NSCs [4] = assay: Amplex-red cholesterol assay in NPC1 neural stem cells; assay type: cell-based, human
Description: as §1
(§3) Induced pluripotent stem cells (IPSCs) from the NPC1 skin fibroblasts were generated and differentiated into neural stem cells (NPC1-NSCs).

NPC1-NSCs [5] = assay: Filipin and Lysotracker staining in NPC1 neural stem cells; assay type: cell-based, human; details: fluorescence microscopy, FIG. 12B
Description: as §2, §3

[6] = system: mouse model of Niemann Pick Type C (NPC) disease; details: cited from earlier work
[7] = system: NPC1, Wolman and other lysosome storage disorder fibroblasts; assay: Electron microscopy of lysosomal ultrastructure; details: Wolman fibroblasts; FIG. 6
Description: Electron Microscopy—Fibroblast cells were seeded in 6-well plates at 150,000 cells/well in 5 ml medium and cultured for 1 day in the presence or absence of compounds. Cells were fixed in 2% glutaraldehyde, 0.1 M cacodylate buffer, pH 7.2 for 1 hr at room temperature and then stored at 4° C. until TEM analysis was performed. The cells were post fixed in 1% osmium tetroxide in the same buffer for 1 hour and en bloc stained with 0.5% uranyl acetate in 0.1 M acetate buffer, pH 4.2. The cells were then dehydrated in graded ethanol solutions (35%, 50%, 70%, 95% and 100%) and infiltrated overnight in epoxy resin (Poly/Bed 812, Polysciences). After adding fresh pure resin the cell plates were cured for 72 h in 55° C. After removing the polystyrene plates, suitable areas for thin sectioning were selected, cut out with a jewelry saw and glued onto empty resin stubs. About 70 nm thin sections were cut on an ultramicrotome (Leica EM UC6) and mounted on naked copper grids. The thin sections were double stained (uranyl acetate and lead citrate), examined in a Hitachi H-7650 transmission electron microscope, and images were taken using an AMT CCD camera.
The effects of δ-tocopherol and methyl-β-cyclodextrin on the ultrastructural pathology of lysosomes in lysosome storage disorder cells were investigated by electron microscopy. In brief, following treatment of wild-type and lysosome storage disorder fibroblasts with δ-tocopherol, methyl-β-cyclodextrin, or δ-tocopherol and methyl-β-cyclodextrin, the fibroblasts were fixed and embedded. Thin sections of the embedded cells were then prepared and the ultrastructural pathology was examined by electron microscopy. […] The effects of δ-tocopherol and/or methyl-β-cyclodextrin on the ultrastructural pathology of other lysosome disorder fibroblasts-Farber (FIGS. 7,8 and 10); Tay-Sachs (FIG. 8); Fabry (FIG. 8); Wolman (FIG. 9); NPA (FIG. 9); Batten (FIG. 9); MSIIB (FIG. 9)—were analyzed by electron microscopy.

Wolman fibroblasts [8] = assay: Nile Red staining of neutral lipids in Wolman fibroblasts; details: cultured with compound for 3 days
Description: Nile-red Staining—The cells were cultured and treated as described above in 96-well plates. On the experimental day, cells were washed two times with PBS and live-stained with 1 μM Nile-red dye solution (prepared in cell culture medium) at 100 μl/well followed by an incubation at 37° C. for 10 min. After washed twice with PBS, the cells were fixed in 3.2% paraformaldehyde in PBS at 100 μl/well 1 μg/ml Hoechst 33342 (Invitrogen) in PBS and incubation at RT for 30 min. The plate was washed twice with PBS and the images were measured in Incell2000 imaging plate reader with a FTTC filter set (Ex=480±20 nm and Ex=525±36 nm) for the neutral lipids (cholesteryl esters and triglycerides) and a DAPI filter set for Hoechst nuclear staining.
(Nile Red) Cells were cultured in the presence of delta tocopherol, alpha tocopherol and MBCD plus in combination for 3 days and then stained for neutral lipid with Nile red.
Wolman fibroblasts were treated with δ-tocopherol, α-tocopherol, methyl-β-cyclodextrin, or combinations of δ-tocopherol and methyl-β-cyclodextrin or α-tocopherol and methyl-β-cyclodextrin. […] To further characterize the effect of treatment on lipid accumulation, treated fibroblasts were evaluated using a Nile Red assay to measure neutral lipid accumulation. […] The Nile Red staining was visualized by fluorescent microscopy.

NPC cells = details: NPC / NPC1 cells; reported; cited from earlier work
[9] = NPC1-NSCs, FIG. 12A, read-out: IC50, Amplex-red cholesterol assay

OC[C@H]1O[C@@H]2O[C@H]3[C@H](O)[C@@H](O)[C@@H](O[C@H]4[C@H](O)[C@@H](O)[C@@H](O[C@H]5[C@H](O)[C@@H](O)[C@@H](O[C@H]6[C@H](O)[C@@H](O)[C@@H](O[C@H]7[C@H](O)[C@@H](O)[C@@H](O[C@H]8[C@H](O)[C@@H](O)[C@@H](O[C@H]9[C@H](O)[C@@H](O)[C@@H](O[C@H]1[C@H](O)[C@H]2O)O[C@@H]9CO)O[C@@H]8CO)O[C@@H]7CO)O[C@@H]6CO)O[C@@H]5CO)O[C@@H]4CO)O[C@@H]3CO [gamma-CD, γ-cyclodextrin]
cholesterol accumulation (Wolman fibroblasts [1]): can reduce cholesterol accumulation | exocytosis (Wolman fibroblasts [2]): enhance exocytosis | cholesterol accumulation (NPC1 skin fibroblasts): can reduce cholesterol accumulation | ranking order of cholesterol reduction effect (NPC1 skin fibroblasts): MBCD>alpha-CD>gamma-CD

OC[C@H]1O[C@@H]2O[C@H]3[C@H](O)[C@@H](O)[C@@H](O[C@H]4[C@H](O)[C@@H](O)[C@@H](O[C@H]5[C@H](O)[C@@H](O)[C@@H](O[C@H]6[C@H](O)[C@@H](O)[C@@H](O[C@H]7[C@H](O)[C@@H](O)[C@@H](O[C@H]8[C@H](O)[C@@H](O)[C@@H](O[C@H]1[C@H](O)[C@H]2O)O[C@@H]8CO)O[C@@H]7CO)O[C@@H]6CO)O[C@@H]5CO)O[C@@H]4CO)O[C@@H]3CO [beta-CD, β-cyclodextrin]
cholesterol accumulation (Wolman fibroblasts [1]): can reduce cholesterol accumulation | exocytosis (Wolman fibroblasts [2]): enhance exocytosis | cholesterol accumulation (NPC1 skin fibroblasts): can reduce cholesterol accumulation | lysosomal exocytosis (primary NPC fibroblasts): increased exocytosis

OC[C@H]1O[C@@H]2O[C@H]3[C@H](O)[C@@H](O)[C@@H](O[C@H]4[C@H](O)[C@@H](O)[C@@H](O[C@H]5[C@H](O)[C@@H](O)[C@@H](O[C@H]6[C@H](O)[C@@H](O)[C@@H](O[C@H]7[C@H](O)[C@@H](O)[C@@H](O[C@H]1[C@H](O)[C@H]2O)O[C@@H]7CO)O[C@@H]6CO)O[C@@H]5CO)O[C@@H]4CO)O[C@@H]3CO [alpha-CD, α-cyclodextrin]
cholesterol accumulation (Wolman fibroblasts [1]): can reduce cholesterol accumulation | exocytosis (Wolman fibroblasts [2]): enhance exocytosis | cholesterol accumulation (NPC1 skin fibroblasts): can reduce cholesterol accumulation | ranking order of cholesterol reduction effect (NPC1 skin fibroblasts): MBCD>alpha-CD>gamma-CD

(2-Hydroxypropyl)-beta-cyclodextrin [HBPCD]
concentration needed for significant effect on reduction of enlarged lysosome size [3]: 8 mM | concentration needed for reduction of cholesterol accumulation and enlarged lysosomes (NPC1 skin fibroblasts; NPC1 skin fibroblasts, single use, FIG. 11A): millimolars | potency in NPC1 neuronal cells compared to NPC1 skin fibroblasts (NPC1-NSCs [4]): much more potent | cholesterol accumulation, combination therapy experiment (NPC1-NSCs [4]; 50 μM HBPCD, 10 μM delta-tocopherol, alone or combined, compared with 5 mM HBPCD): did not show the significant cholesterol reduction effect | IC50 (NPC1-NSCs [4]; [9]): 12 µM | ratio of IC50 HBPCD to IC50 delta-tocopherol (NPC1-NSCs [4]; human NPC1 neural stem cells): 3.3 fold | IC50 (NPC1-NSCs [4]; human NPC1 neural stem cells, values given under dosage recommendations, read-out: IC50 on reduction of cholesterol accumulation, Amplex-red cholesterol assay): 50 µM | reduction of cholesterol accumulation (filipin staining) and enlarged lysosomes (Lysotracker staining) (NPC1-NSCs [5]): better than those of delta-tocopherol | cholesterol accumulation and neuronal cell loss [6]: reduced cholesterol accumulation and neuronal cell loss | lysosomal exocytosis (primary NPC fibroblasts): promote a calcium-dependent lysosomal exocytosis

COC[C@H]1O[C@@H]2O[C@H]3[C@H](O)[C@@H](OC)[C@@H](O[C@H]4[C@H](O)[C@@H](OC)[C@@H](O[C@H]5[C@H](O)[C@@H](OC)[C@@H](O[C@H]6[C@H](O)[C@@H](OC)[C@@H](O[C@H]7[C@H](O)[C@@H](OC)[C@@H](O[C@H]8[C@H](O)[C@@H](OC)[C@@H](O[C@H]1[C@H](O)[C@H]2OC)O[C@@H]8COC)O[C@@H]7COC)O[C@@H]6COC)O[C@@H]5COC)O[C@@H]4COC)O[C@@H]3COC [MBCD, Heptakis(2,6-di-o-methyl)-beta-cyclodextrin]
reduction in total cholesterol (Wolman fibroblasts [1]; Wolman fibroblasts, FIGS. 1A-1C): significant reduction | reduction in free cholesterol (Wolman fibroblasts [1]; Wolman fibroblasts, FIGS. 1D-1F): significant reduction | cholesterol accumulation (Wolman fibroblasts [1]): most potent | lysosomal exocytosis as determined by HEXB secretion (Wolman fibroblasts [2]): significant increases in lysosomal exocytosis | LysoTracker staining ([3]; NPC1 and Wolman fibroblasts, 40 μM delta-T or 300 μM MBCD): significantly reduced LysoTracker staining | lipid accumulation and lysosome size (Lysotracker) ([3]; Wolman, Tay-Sach, Fabry, Farber, MPSIIIB fibroblasts, FIGS. 5A-5D): reduced lipid accumulation and lysosome size | concentration needed for significant effect on reduction of enlarged lysosome size [3]: 0.3 mM | reduction of cholesterol accumulation and enlarged lysosomes (NPC1 skin fibroblasts; NPC1 skin fibroblasts, 160 μM MBCD alone, 50 μM HBPCD or 20 μM MBCD with 10 μM delta-tocopherol, FIG. 11): almost completely reversed the phenotype | ranking order of cholesterol reduction effect (NPC1 skin fibroblasts): MBCD>alpha-CD>gamma-CD | potency of MBCD relative to HBPCD (NPC1 skin fibroblasts; reduction of cholesterol accumulation and enlarged lysosome size in NPC1 fibroblasts): over 30 fold | IC50 (NPC1-NSCs [4]; [9]): 10 µM | reduction of cholesterol accumulation (filipin staining) and enlarged lysosomes (Lysotracker staining) (NPC1-NSCs [5]): better than those of delta-tocopherol | cholesterol accumulation and neuronal cell loss [6]: reduced cholesterol accumulation and neuronal cell loss | abnormal lysosomal structures (electron microscopy) [7]: significantly reduced | neutral lipid accumulation (Nile red) (Wolman fibroblasts [8]; FIG. 2): reduces accumulation of neutral lipids | neutral lipid accumulation (Nile red) (Wolman fibroblasts [8]; FIG. 2, listed as methyl-β-cyclodextrin): significantly reduced

Cc1c(C)c2c(c(C)c1O)CC[C@@](C)(CCC[C@H](C)CCC[C@H](C)CCCC(C)C)O2 [α-tocopherol]
lysosomal exocytosis as determined by HEXB secretion (Wolman fibroblasts [2]): significant increases in lysosomal exocytosis | neutral lipid accumulation (Nile red) (Wolman fibroblasts [8]; FIG. 2): failed to show any effect | neutral lipid accumulation (Nile red) (Wolman fibroblasts [8]; FIG. 2, listed as Alpha Tocopherol): not as potent

COc1cc(/C=C/C(=O)CC(=O)/C=C/c2ccc(O)c(OC)c2)ccc1O [curcumin]
cholesterol efflux, accumulation or storage (NPC cells): reduce cholesterol storage
